In patent publication US20110245095A1, “FAST ASSIGNMENT OF ADEQUATE CHEMOTHERAPY WITH LATINUM BASED DRUGS FOR CANCER PATIENTS BASED ON THE IDENTIFICATION OF CONSTITUTIONAL BRCAL MUTATIONS” (priority 2008, published 2011):

What was measured:
Type in all cases: in vivo, human
[1] = system: invasive breast cancer, pathogenic BRCA1 mutation carriers; assay: Neoadjuvant cisplatin therapy in breast cancer patients carrying a constitutional BRCA1 mutation (Example 1)
Description: Eight patients were treated in Szczecin (Poland) and two were treated in Bielsko-Biala (Poland). In these centers, genetic testing is offered to all women with incident breast cancer.
For the purpose of this study, genetic testing was expedited; in most cases the test result was available within five days of diagnosis. Written informed consent was obtained from each patient. The protocol was approved by the Research Ethics Review Board of the Pomeranian Medical Academy.
Patients with a previous diagnosis of breast cancer, or other cancer, were excluded (three patients). Patients who received prior chemotherapy were excluded (three patients). Patients with metastatic disease (stage 1V) at presentation were excluded (one patient). One patient presented with primary breast cancer after a previous prophylactic bilateral mastectomy and was excluded.
Patients were evaluated for renal function, liver function, and hematology prior to therapy.
Prior to platinum chemotherapy, the clinical and histological features of the breast cancers were assessed. Tumor size was evaluated by clinical examination and by ultrasound, in some cases supplemented by mammogram. Histology was evaluated in nine cases by core biopsy and in one case by fine needle aspiration. For the nine cases who underwent core biopsy, grade, ER, PR, and ERBB2 status were evaluated by immuno-histochemistry. […] Grade was evaluated in the core biopsy specimen using the Bloom-Richardson classification system,
Each cycle was 21 days. Granulocyte colony-stimulating factor (G-CSF) was not given to any patient. Dexamethasone (8 mg) was administered once daily for three days after chemotherapy, Ondansetron (Zophran™; GlaxoWellcome) was used for anti-nausea prophylaxis. Toxicity (nausea, vomiting, neutropenia) was assessed using the National Cancer Institute Common Toxicity Criteria after each cycle.
Surgery was followed by post-operative chemotherapy (four cycles of Adriamycin and Cyclophosphamide). Two patients received radiotherapy.
Clinical response was considered complete if there was no evidence of the primary breast tumor according to the World Health Organization (WHO) criteria (total disappearance of the tumor in breast and lymph nodes). Clinical response was considered ‘partial’ if there was a reduction of ≧50% in the product of the two largest perpendicular diameters of the tumor. […] The primary endpoint of this study was pathologic complete response. Pathologic response was considered complete if there was no evidence of invasive breast tumor and the lymph nodes were negative. Pathology specimens were reviewed by two pathologists. If there was evidence of breast carcinoma in situ, but no evidence of invasive disease, this was still considered to be a pathologic complete response.

[2] = system: disseminated ovarian cancer, BRCA1 mutation carriers; assay: Cisplatin chemotherapy of BRCA1 mutation carriers with disseminated ovarian cancer (Example 2, retrospective); conditions: 4 patients
From the text: The patients selected for this study were retrospectively screened from the database of the oncology department at the Pomeranian Academy of Medicine, Szczecin (Poland). […] All cases were documented for the presence of a BRCA1 constitutional mutation among the dominating founder mutations in Poland (C610, 4153delA and 5382insC) determined by the same techniques described in Example 1. The tumor size had to be measurable per RECIST: X-Ray or physical examination ≧20 mm, and/or spiral CT scan≧10 mm, and/or conventional CT scan≧20 mm. Only individuals were chosen with a life expectancy a priori of at least 3 months, to exclude a technical blur due to extreme disease progression in terminal cancer cases. The maximal ECOG performance status admitted was less than or equal to 2. […]

[3] = system: disseminated breast and ovarian cancer, BRCA1 mutation carriers; assay: Cisplatin chemotherapy, disseminated breast and ovarian cancer analysed together (Example 2)
From the text: The patients selected for this study were retrospectively screened from the database of the oncology department at the Pomeranian Academy of Medicine, Szczecin (Poland). […] All cases were documented for the presence of a BRCA1 constitutional mutation among the dominating founder mutations in Poland (C610, 4153delA and 5382insC) determined by the same techniques described in Example 1. The tumor size had to be measurable per RECIST: X-Ray or physical examination ≧20 mm, and/or spiral CT scan≧10 mm, and/or conventional CT scan≧20 mm. Only individuals were chosen with a life expectancy a priori of at least 3 months, to exclude a technical blur due to extreme disease progression in terminal cancer cases. The maximal ECOG performance status admitted was less than or equal to 2. The definition of minimum adequacy of organ function required prior to study entry were as follows: Absolute neutrophil count (ANC)>1,500/mcl, Platelets>100,000/mcl, Haemoglobin >8 g/dl, Total Bilirubin <1.5×ULN, AST (SGOT)/ALT (SGPT)<2.5×ULN and Creatinine within the normal institutional limits. All patients signed their willingness and ability to comply with scheduled visits, treatment plans, laboratory tests, and other study procedures. A total of 15 patients matched the selection criteria with ages at diagnosis ranging from 32 to 70 years and mean age at diagnosis of 48 years.
Ovarian cancer patients were selected following the same selection criteria. Four individuals matched the criteria with ages at diagnosis ranging from 42 to 45 years and mean age at diagnosis of 43.5 years.
The response assessment was based on a complete tumor measurement form (the form is carried forward continuously from cycle to cycle). Possible responses were complete response, partial response, stable disease and progressive disease, according to international oncology standards.

[4] = system: cancer of the colon, BRCA1 mutation carriers; assay: Cisplatin chemotherapy of BRCA1 mutation carriers with colon cancer (Example 3, retrospective); conditions: 1 patient
From the text: (§1) The database of the oncology department at the Pomeranian Academy of Medicine, Szczecin (Poland), was retrospectively screened for patients affected by cancer types different than the breast or ovary (histologically or cytologically proven) since those cancer types had already been analyzed in Examples 1 and 2. Those patients had to be carriers of at least one constitutional mutation of the gene BRCA1, among the dominating founder mutations in Poland (CMG, 4153delA and 5382insC). The presence of a mutation was determined by the same techniques described in Example 1.
(§2) The group that qualified matching all criteria consisted of five patients affected by cancer of the colon (1 subject), the pancreas (1 subject), the gallbladder (1 subject) and the lung (2 subjects). In 60% of the cases (both lung cancer patients and the colon cancer patient) a complete remission was reported after the application of the chemotherapy. […] In none of the cases, there was a lack of response towards cisplatin.

[5] = system: cancer of the lung, BRCA1 mutation carriers; assay: Cisplatin chemotherapy of BRCA1 mutation carriers with lung cancer (Example 3, retrospective); conditions: 2 patients
From the text: as §1, §2

[6] = system: cancer of the pancreas, BRCA1 mutation carriers; assay: Cisplatin chemotherapy of BRCA1 mutation carriers with pancreatic cancer (Example 3, retrospective); conditions: 1 patient
From the text: as §1, §2

[7] = system: cancer of the gallbladder, BRCA1 mutation carriers; assay: Cisplatin chemotherapy of BRCA1 mutation carriers with gallbladder cancer (Example 3, retrospective); conditions: 1 patient
From the text: as §1, §2

[8] = system: cancer of colon, lung, pancreas, gallbladder, BRCA1 mutation carriers; assay: Cisplatin chemotherapy of BRCA1 mutation carriers with cancer at sites other than breast and ovaries, total (Example 3); conditions: 5 patients
From the text: as §1, §2

[9] = N = 10, after mastectomy and lymph node dissection
[10] = neoadjuvant cisplatin 75 mg/m^2 every three weeks, N = 10

N.N.[Cl][Pt][Cl] [cisplatin, cis-diamminedichloridoplatinum(II)]
Clinical Response: No Change, % ([1]; N = 10): 0% | Clinical Response: No Change, No. ([1]; N = 10): 0 | Clinical Response: Partial Response, % ([1]; N = 10): 10% | Clinical Response: Partial Response, No. ([1]; N = 10): 1 | Clinical Response: Progressive Disease, % ([1]; N = 10): 0% | Clinical Response: Progressive Disease, No. ([1]; N = 10): 0 | Number of Lymph Nodes Positive: 0, % ([1]; N = 10): 90% | Number of Lymph Nodes Positive: 0, No. ([1]; N = 10): 9 | Number of Lymph Nodes Positive: 1-3, % ([1]; N = 10): 10% | Number of Lymph Nodes Positive: 1-3, No. ([1]; N = 10): 1 | Number of Lymph Nodes Positive: 4-9, % ([1]; N = 10): 0% | Number of Lymph Nodes Positive: 4-9, No. ([1]; N = 10): 0 | Number of Lymph Nodes Positive: >9, % ([1]; N = 10): 0% | Number of Lymph Nodes Positive: >9, No. ([1]; N = 10): 0 | Pathologic Response: No Response, % ([1]; N = 10): 0% | Pathologic Response: No Response, No. ([1]; N = 10): 0 | Pathologic Response: Partial Reseponse, % ([1]; N = 10): 10% | Pathologic Response: Partial Reseponse, No. ([1]; N = 10): 1 | Residual Disease in Breast: 1-3 cm, % ([1]; N = 10): 0% | Residual Disease in Breast: 1-3 cm, No. ([1]; N = 10): 0 | Residual Disease in Breast: 4-9 cm, % ([1]; N = 10): 0% | Residual Disease in Breast: 4-9 cm, No. ([1]; N = 10): 0 | Residual Disease in Breast: <1 cm, % ([1]; N = 10): 0% | Residual Disease in Breast: <1 cm, No. ([1]; N = 10): 0 | Residual Disease in Breast: >9 cm, % ([1]; N = 10): 0% | Residual Disease in Breast: >9 cm, No. ([1]; N = 10): 0 | Residual Disease in Breast: none, % ([1]; N = 10): 100% | Residual Disease in Breast: none, No. ([1]; N = 10): 10 | grade 3 or 4 anemia ([1]; N = 10): No grade 3 or 4 anemia was observed | patients with febrile neutropenia ([1]; N = 10): No patient | Pathologic Response: Complete Pathologic Response, % [1, 9]: 90% | Pathologic Response: Complete Pathologic Response, No. [1, 9]: 9 | patients who stopped due to side effects (nausea and vomiting) ([1]; N = 10, stopped after two cycles): One patient | complete pathologic response, patients who completed treatment ([1]; four cycles of cisplatin, seven patients): all seven | Clinical Response: Complete Response, % [1, 10]: 90% | Clinical Response: Complete Response, No. [1, 10]: 9 | pathologic complete response, patients who received two cycles ([1]; two cycles, three patients): two | No response, number of patients [2]: 0 | Response: PR (partial response), number of patients [2]: 0 | No response, % of patients ([3]; 19 patients): 21% | No response, number of patients ([3]; 19 patients): 4 | Response: CR, % of patients ([3]; 19 patients): 53% | Response: CR, number of patients ([3]; 19 patients): 10 | Response: PR, % of patients ([3]; 19 patients): 16% | Response: PR, number of patients ([3]; 19 patients): 3 | Response: SD, % of patients ([3]; 19 patients): 10% | Response: SD, number of patients ([3]; 19 patients): 2 | patients responsive to the therapy ([3]; 19 patients, CR + PR + SD): 79% | adverse effects: anemia, cases ([3]; Example 2 patients): 1 case | adverse effects: nausea, cases ([3]; Example 2 patients): 2 cases | adverse effects: neutropenia, cases ([3]; Example 2 patients): 6 cases | No response, number of patients [4]: 0 | Response: CR, number of patients [4]: 1 | No response, number of patients [5]: 0 | Response: CR, number of patients [5]: 2 | No response, number of patients [6]: 0 | Response: SD, number of patients [6]: 1 | No response, number of patients [7]: 0 | Response: PR, number of patients [7]: 1 | Response: CR, % of patients [8]: 60% | Response: CR, number of patients [8]: 3 | Response: PR, % of patients [8]: 20% | Response: PR, number of patients [8]: 1 | Response: SD, % of patients [8]: 20% | Response: SD, number of patients [8]: 1 | patients with at least a partial remission [8]: 80%
